Marks after values point to notes of the source that are not given here.
How the values were obtained:
[1] = tested on: mouse-derived preadipocytes (3T3-L1); assay: Fat content in adipocytes observed by microscope; assay type: cell-based; conditions: FIG. 8A
Protocol: (§1) The 3T3-L1 cells were grown in a medium (DMEM) containing 10% FBS (fetal bovine serum) and 1% antibiotic until 100% and then cultured for 48 hours after replacing the medium with a fresh medium. After adding a differentiation medium and the drug, the cells were cultured for 48 hours. The composition of the differentiation medium was as follows: 0.0125 μmol/mL dexamethasone, 12.5 μmol/mL 3-isobutyl-1-methylxanthine, 10 μg/mL insulin, 10% FBS. After treating with the differentiation medium for 48 hours, the medium was replaced with an insulin medium containing 10 μg/mL insulin and 10% FBS and then treated for 48-96 hours. Then, after replacing the medium with a normal medium containing 10% FBS only, the cells were cultured for 24-48 hours and then used for experiments.

[2] = tested on: spontaneously hypertensive rat (SHR); assay: Cardiac function by M-mode echocardiography and heart rate in SHR; conditions: for Diastolic left ventricular inner diameter / Diastolic left ventricular posterior wall / Diastolic left ventricular wall / Left ventricular ejection fraction / Left ventricular fractional shortening / Left ventricular mass measured by ASE / Systolic left ventricular inner diameter / left ventricular performance: 8-week-old SHR, echocardiography; for Diastolic left ventricular inner diameter / Diastolic left ventricular posterior wall / Diastolic left ventricular wall / Left ventricular ejection fraction / Left ventricular fractional shortening / Left ventricular mass measured by ASE / Systolic left ventricular inner diameter: 4 weeks in drinking water (midodrine 0.3 mg/kg/day, atenolol 1 mg/kg/day), mean ± SD; for left ventricular performance: compared with unadministered control group IV
[3] = Blood adiponectin by ELISA, normalized to visceral fat weight; assay type: in vivo, spontaneously hypertensive rat (SHR); conditions: SHR, 4 weeks in drinking water, mean ± SD
Text: The measured adiponectin level was normalized to the visceral fat weight (g).

preadipocytes (3T3-L1) = assay: Western blot of PPAR-δ, p-AMPK and PGC-1α in midodrine-treated adipocytes; assay type: cell-based, mouse; conditions: midodrine-treated adipocytes (3T3-L1), FIG. 8B
Protocol: as §1
In addition, when western blotting was conducted on the midodrine-treated adipocytes according to the method of Example 2-3, the expression of […], p-AMPK and PGC-1α proteins suppressing fat synthesis/accumulation was increased as shown in FIG. 8B.

[4] = tested on: HMG-CoA reductase protein (HMGCR); assay: Expression of HMG-CoA reductase protein in liver of SHR; assay type: in vivo, spontaneously hypertensive rat (SHR); conditions: among rat groups, FIG. 7
[5] = Body weight, heart weight and abdominal fat weight in SHR; assay type: in vivo, spontaneously hypertensive rat (SHR)
Protocol: Body weight was measured for the same rats whose cardiac function was measured.
When the body weight and the weight of abdominal fat (visceral fat) were measured for the midodrine-administered rat (II), atenolol-administered rat (III) and unadministered 8-week-old hypertensive control rat (IV) of Example 1-2, midodrine administration decreased both the body weight and abdominal fat as shown in FIG. 9.

[6] = ATP level in tissue by ELISA; assay type: in vivo, spontaneously hypertensive rat (SHR); conditions: SHR, compared to control SHRs, FIG. 4
Protocol: 0.02 g of liver tissue isolated from the rats of Example 1-2 was homogenized in 500 μL of PBS. The homogenate was centrifuged at 1500×g (or 5000 rpm) for 15 minutes and the supernatant was recovered. After adding 100 μL of standard materials or samples to adequate wells of a pre-coated microtiter plate, 10 μL of the remaining solution was added to the sample. After adding 50 μL of the conjugate to each well and then mixing, the plate was covered and incubation was conducted at 37° C. for 1 hour. After adding 50 μL of each of substrates A and B to each well, incubation was conducted at 37° C. for 15 minutes. After adding a stop solution to each well, optical density was measured at 450 nm using a microplate reader.
The ATP level in the heart, skeletal muscle and liver of basal 4-week-old rat (I), midodrine-administered rat (II), atenolol-administered rat (III) and unadministered 8-week-old control rat (IV) was measured by ELISA according to the method of Example 2-1.

cytochrome c oxidase = assay: Immunohistochemical staining for cytochrome c oxidase in skeletal muscle tissue of SHR; assay type: in vivo, spontaneously hypertensive rat (SHR); conditions: among groups I-IV, FIG. 3B
[7] = tested on: AMPK/PPAR-δ/PGC1α proteins; assay: Western blot of AMPK, PPAR-δ and PGC-1α proteins in cardiac muscle, skeletal muscle, fat and liver of SHR
[8] = tested on: mouse cardiac muscle cells (HL1); assay: Western blot of p-AMPK and PPAR-δ in midodrine-treated cardiac muscle cells; assay type: cell-based; conditions: FIG. 1
Protocol: (§2) The L6 and HL1 cells were grown in a medium (DMEM) containing 10% FBS (fetal bovine serum) and 1% antibiotic until about 80% confluence, and then the medium was replaced with a medium containing 1% FBS for differentiation for 4 days. The drug was treated on day 3 of differentiation. All in-vitro experiments using the L6 and HL1 cells were conducted 24 hours after the drug treatment.
(§3) In order to investigate the effect of α1-AR stimulation on AMPK and AMPK phosphorylation (activation) in vitro, the mouse skeletal muscle cells […] and the mouse cardiac muscle cells (HL1) cultured in Example 1-1 were treated with 30 μM of midodrine, which is an α1-AR agonist, and then western blot was conducted as described in Example 2-3.

[9] = tested on: SDH (succinate dehydrogenase); assay: Enzymatic activity of SDH in skeletal muscle of SHR; assay type: in vivo, spontaneously hypertensive rat (SHR); conditions: among groups I-IV, FIG. 3A
Protocol: After adding 10 μL of protease inhibitor cocktail per 1 mL of PBS (phosphate-buffered saline) to each well (500 μL), 410 μL of a culture solution prepared by mixing 1 M phosphate buffer (25 μL×25=625 μL), 0.2 M sodium succinate (125 μL×25=3125 μL), NBT (25 μL×25=625 μL) and D.W. (235 μL×25=5875 μL) per well was heated to 37° C. for 20 minutes. […] After conducting centrifugation at 13000 rpm and 4° C. for 5 minutes, the supernatant was recovered and transferred to a fresh tube. After adding 410 μL of a culture solution to a tube, enzymatic reaction was conducted by adding 90 μL of the sample. After adding 410 μL of distilled water (DW) to another tube and adding 90 μL of the sample, the absorbance of the dilute was measured. After adding the enzymatic reaction tube and the another tube in water bath at 37° C., respectively, reaction was conducted for 30 minutes. The reaction was terminated by putting the tube in ice. After adding 200 μL to each well of a 96-well plate, absorbance was measured at 550 nm. Then, the enzymatic activity of succinate dehydrogenase (SDH) was measured by the following equation.
Enzymatic activity=(absorbance of enzymatic reaction solution−absorbance of diluted enzymatic reaction solution)/protein content (Bradford 595 nm)

[10] = tested on: mouse skeletal muscle cells (C2C12); assay: Western blot of p-AMPK and PPAR-δ in midodrine-treated skeletal muscle cells; assay type: cell-based; conditions: FIG. 1
Protocol: as §2, §3

[11] = 8-week-old SHR, 4 weeks in drinking water (midodrine 0.3 mg/kg/day, atenolol 1 mg/kg/day), mean ± SD

SMILES	Diastolic left ventricular inner diameter [2]	Diastolic left ventricular posterior wall [2]	Diastolic left ventricular wall [2]	Left ventricular ejection fraction [2]	Left ventricular fractional shortening [2]	Left ventricular mass measured by ASE [2]	Systolic left ventricular inner diameter [2]	left ventricular performance [2]	Adiponectin (serum level per weight of visceral fat) [3]	expression level of HMG-CoA reductase protein (HMGCR) in the liver [4]	Body weight [5, 11]	Hear weight [5, 11]	ATP level in heart tissue [6]	also measured
COc1ccc(OC)c(C(O)CNC(=O)CN)c1 (racemic) [Midodrine, (RS)—N-[2-(2,5-dimethoxyphenyl)-2-hydroxyethyl]glycinamide]	6.06 ± 0.42^a mm	1.54 ± 0.13^a mm	1.46 ± 0.13^a mm	81.55 ± 6.12^a %	45.48 ± 6.25^a %	1.04 ± 0.06 g	3.32 ± 0.54^a mm	higher	7585.8 ± 182.3^b ng/mL/g	the lowest	238.24 ± 11.69^a g	1.47 ± 0.16^a g	higher	fat content in adipocytes ([1]; 3T3-L1, 30 μM/L midodrine, microscope): decreased; Left ventricular mass measured by ASE ([2]; listed as group II): the lowest; cardiac hypertrophy or further increase in blood pressure ([2]; SHR, summary statement, no blood pressure method described): without cardiac hypertrophy or further increase in blood pressure; Adiponectin (serum level per weight of visceral fat) ([3]; listed as group II): remarkably higher; expression of PGC-1α protein (preadipocytes (3T3-L1)): increased; expression of PPAR-5 protein (preadipocytes (3T3-L1)): increased; expression of p-AMPK protein (preadipocytes (3T3-L1)): increased; Body weight ([5]; SHR groups II, III and IV, FIG. 9 (A)): decreased; weight of abdominal fat (visceral fat) ([5]; SHR groups II, III and IV, FIG. 9 (B)): decreased; cytochrome c oxidase immunohistochemical staining in skeletal muscle tissue (cytochrome c oxidase): the highest increase; AMPK expression in cardiac muscle ([7]; 4 weeks in drinking water, compared to control group IV, FIG. 2B): remarkably higher; AMPK expression in skeletal muscle ([7]; 4 weeks in drinking water, compared to control group IV, FIG. 2C): remarkably higher; AMPK expression in fat ([7]; 4 weeks in drinking water, compared to control group IV, FIG. 2D): remarkably higher; expression level of the phosphorylated AMPK protein in the liver ([7]; among groups I-IV, FIG. 2E): the highest; activation and expression of AMPK, PPAR-δ and PGC-1α in the heart, skeletal muscle and liver ([7]; summary statement): induces activation and increased expression; expression of PPAR-δ protein [8]: increases; expression and phosphorylation of AMPK ([8]; midodrine 30 μM): resulted in the expression and phosphorylation of AMPK; enzymatic activity of SDH in skeletal muscle [9]: the highest increase; expression of PPAR-δ protein [10]: increases; expression of phosphorylated AMPK ([10]; midodrine 30 μM): increased
CC(C)NCC(O)COc1ccc(CC(N)=O)cc1 (stereo not shown) [Atenolol, atenolol]	6.33 ± 0.35^a mm	1.67 ± 0.16 mm	1.50 ± 0.13^a mm	82.00 ± 5.31^a %	45.70 ± 5.82^a %	1.10 ± 0.07^a g	3.43 ± 0.28^a mm	higher	6136.5 ± 574.7^b,c ng/mL/g	the lowest	296.46 ± 16.73^b g	1.47 ± 0.15^a g	higher	heart rate ([2]; SHR from 4 weeks of age, measured over 1 month, at the end of the experiment, among three groups, FIG. 6): the lowest; Body weight ([5]; 8-week-old SHR, 4 weeks in drinking water (midodrine 0.3 mg/kg/day, atenolol 1 mg/kg/day), mean ± SD, listed as group III): the highest
COC(=O)c1sccc1S(=O)(=O)Nc1ccc(Nc2ccccc2)cc1OC [GSK0660]														effect on fat content in adipocytes when GSK0660 is added to midodrine ([1]; 3T3-L1, 30 μM/L midodrine + 50 μM/L GSK0660 mixture (1:2 (w/w))): the effect of midodrine was decreased

— patent publication US20190240172A1, “PHARMACEUTICAL COMPOSITION FOR PREVENTING OR TREATING DIABETES AND/OR […] COMPRISING MIDODRINE OR PHARMACEUTICALLY ACCEPTABLE SALT THEREOF AS ACTIVE INGREDIENT” (Cellvertics Co., Ltd., priority 2016, published 2019)
